Paper PMC6253949, “The Inhibitory Action of Kohamaic Acid A Derivatives on Mammalian DNA Polymerase β” (Molecules, 2008)

Target: T1, Human DNA polymerase ι (Homo sapiens, UniProt Q9UNA4)
T1 construct: His6 (C); made in house; host or cells: SF9 insect cells (baculovirus)
T1 sequence (Q9UNA4 1-740): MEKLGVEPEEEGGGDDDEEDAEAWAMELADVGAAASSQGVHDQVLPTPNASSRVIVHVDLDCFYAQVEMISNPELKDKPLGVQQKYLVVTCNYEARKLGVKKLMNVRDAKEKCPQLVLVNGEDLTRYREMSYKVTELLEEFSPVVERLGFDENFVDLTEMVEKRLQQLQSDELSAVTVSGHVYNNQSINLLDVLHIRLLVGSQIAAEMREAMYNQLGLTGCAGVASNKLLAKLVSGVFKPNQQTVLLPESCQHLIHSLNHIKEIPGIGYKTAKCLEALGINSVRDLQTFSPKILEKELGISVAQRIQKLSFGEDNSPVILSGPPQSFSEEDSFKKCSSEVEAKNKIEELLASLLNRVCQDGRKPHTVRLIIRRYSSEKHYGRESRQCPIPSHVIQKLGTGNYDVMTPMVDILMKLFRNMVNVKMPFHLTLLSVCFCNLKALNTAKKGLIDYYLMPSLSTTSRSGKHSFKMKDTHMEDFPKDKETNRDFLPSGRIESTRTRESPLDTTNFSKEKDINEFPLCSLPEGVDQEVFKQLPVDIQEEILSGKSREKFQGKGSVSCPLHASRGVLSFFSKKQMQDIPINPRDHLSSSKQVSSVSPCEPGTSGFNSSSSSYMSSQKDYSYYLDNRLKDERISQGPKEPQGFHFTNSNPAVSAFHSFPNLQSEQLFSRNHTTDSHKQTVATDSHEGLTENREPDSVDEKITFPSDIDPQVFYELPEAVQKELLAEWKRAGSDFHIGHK
Test: DNA polymerase assay, human pol ι
Format: biochemical
From the text: Pol α was purified from calf thymus by immuno-affinity column chromatography as described by Tamai et al.. Recombinant rat pol β was purified from E. coli JMpβ5 as described by Date et al.. The human pol γ catalytic gene was cloned into pFastBac. Histidine-tagged enzyme was expressed using the BAC-TO-BAC HT Baculovirus Expression System according to the supplier's manual (LIFE TECHNOLOGIES, MD, USA) and purified using ProBoundresin (Invitrogen Japan, Tokyo, Japan). Human pols δ and ε were purified by the nuclear fractionation of human peripheral blood cancer cells (Molt-4) using the second subunit of pols δ and ε-conjugated affinity column chromatography, respectively. Recombinant human pols η and ι tagged with His6 at their C-terminal were expressed in SF9 insect cells using the baculovirus expression system, and were purified as described previously. A truncated form of pol κ (i.e., hDINB1DC) with 6 x His-tags attached at the C-terminal was overproduced using the BAC-to-BAC Baculovirus Expression System kit (GIBCO BRL, MD, USA) and purified as described previously. […]
For pols, poly(dA)/oligo(dT)12-18 (A/T = 2/1) and dTTP were used as the DNA template-primer and nucleotide (i.e., dNTP) substrate, respectively. […] Activity without the inhibitor was considered 100%, and the remaining activity at each concentration of the inhibitor was determined relative to this value. […]

SMILES: CC1=CC[C@H]2C(C)(C)CCC[C@]2(C)[C@H]1CCCCCCCCCCCCCCCCC(=O)O (relative stereo) [compound 11, (1S*,4aS*,8aS*)-17-(1,4,4a,5,6,7,8,8a-octahydro-2,5,5,8a-tetramethylnaphthalen-1-yl)heptadecanoic acid]
- IC50: 7.84 ± 0.39 µM
